Assay results published in patent EP2975030B1, “DIHYDROPYRIDAZINE-3,5-DIONE DERIVATIVE” (Chugai Seiyaku Kabushiki Kaisha, priority 2013, dated 2014).

Tested on: rat small-intestinal brush border membrane vesicles
Experiment: Inhibitory effect on 33PO4 uptake into rat small-intestinal brush border membrane vesicles (rapid filtration method)
Assay type: biochemical, Wistar female rat
Details: 1 µM test compound, 33PO4 uptake into rat small-intestinal BBMVs, 60 seconds
Method in brief: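 Uptake was terminated by ice-cold 110 mM NaCl, 1 mM KH2PO4, 10 mM HEPES (pH 7.5) buffer and immediate suction filtration, then washing. Using rat small-intestinal BBMVs, retained 33PO4 was quantified by liquid scintillation counting as transport activity.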

| Compound | Rate of uptake inhibition (%) (1 µM) | Rate of uptake inhibition (%) (1 µM) |
| --- | --- | --- |
| CCC1(CC)C(O)=C(C(=O)Nc2ccc(Cl)cc2-c2ccc(C(F)(F)F)nc2)C(=O)N(Cc2ccc(OCCN3CCOCC3)c(F)c2F)N1C [Example 294] | 40 | – |
| Cc1cc(NC(=O)C2=C(O)[C@]3(C)CCCN3N(Cc3cccc(F)c3)C2=O)c(C(F)(F)F)o1 [Example 8] | 37 | – |
| C[C@]12CCCN1N(Cc1cccc(F)c1F)C(=O)C(C(=O)Nc1ccc(C(F)(F)F)cc1-c1cc(C(F)(F)F)ncn1)=C2O [Example 21, (4aR)-1-[(2,3-Difluorophenyl)methyl]-4-hydroxy-4a-methyl-2-oxo-N-[4-(trifluoromethyl)-2-[6-(trifluoromethyl)pyrimidin-4-yl]phenyl]-6,7-dihydro-5H-pyrrolo[1,2-b]pyridazine-3-carboxamide] | 61 | – |
| C[C@@]12CCCN1N(Cc1ccc(OCCN3CCOCC3)c(F)c1F)C(=O)C(C(=O)Nc1ccc(Cl)cc1-c1cc(C(F)(F)F)ncn1)=C2O.Cl [Example 107] | 54 | – |
| C[C@]12CCCN1N(Cc1cccc(F)c1Cl)C(=O)C(C(=O)Nc1ccc(C(F)(F)F)cc1-c1ccc(C(F)(F)F)nc1)=C2O [Example 201] | 77 | – |
| C[C@]12CCCN1N(Cc1ccc(F)c(F)c1)C(=O)C(C(=O)Nc1cc(F)c(Br)c(F)c1)=C2O [Example 191] | 87 | – |
| CN1N(Cc2ccc(OCCN3CCOCC3)c(F)c2F)C(=O)C(C(=O)Nc2ccc(C(F)(F)F)cc2-c2ncnc(C(F)(F)F)c2Cl)=C(O)C12CCC2 [Example 284] | 46 | – |
| CN1[C@@H](C(C)(C)C)C(O)=C(C(=O)Nc2ccc(C(F)(F)F)cc2C(F)(F)F)C(=O)N1Cc1ccc(OCCN2CCOCC2)c(F)c1F [Example 277] | 41 | – |
| C[C@]12CCCN1N(Cc1cccc(F)c1F)C(=O)C(C(=O)Nc1ccc(C(F)(F)F)cc1-c1ccc(C(F)(F)F)nc1)=C2O [Example 90] | 91 | – |
| COCCN1CCN(CCOc2ccc(CN3C(=O)C(C(=O)Nc4ccc(C(F)(F)F)cc4-c4cc(C(F)(F)F)ncn4)=C(O)C4(CCCC4)N3C)c(F)c2F)CC1 [Example 377] | 29 | – |
| 6-[[2,3-Difluoro-4-[1-(2-methoxyethyl)azetidin-3-yl]oxyphenyl]methyl]-9-hydroxy-5-methyl-7-oxo-N-[4-(trifluoromethyl)-2-[6-(trifluoromethyl)pyrimidin-4-yl]phenyl]-5,6-diazaspiro[3.5]non-8-ene-8-carboxamide [Example 413] | – | 34 |
| (4aR)-1-[(3-Fluorophenyl)methyl]4-hydroxy-N-[5-methyl-2-(trifluoromethyl)furan-3-yl]-2-oxo-4a-propyl-6,7-dihydro-5H-pyrrolo[1,2-b]pyridazine-3-carboxamide [Example 11] | 22 | – |
| CN1N(Cc2ccc(OCCN3[C@@H]4COC[C@H]3C4)c(F)c2F)C(=O)C(C(=O)Nc2ccc(C(F)(F)F)cc2-c2cc(C(F)(F)F)ncn2)=C(O)C12CCCC2 [Example 380] | 43 | – |
| C[C@]12CCCN1N(Cc1cccc(Cl)c1F)C(=O)C(C(=O)Nc1ccc(C(F)(F)F)cc1-c1cc(C(F)(F)F)ncn1)=C2O [Example 209] | 76 | – |
| COc1cccc(-c2cc(C(F)(F)F)ccc2NC(=O)C2=C(O)[C@@]3(C)CCCN3N(Cc3ccc(C#CCCCCO)c(F)c3F)C2=O)c1OC [Example 135] | 90 | – |
| CN(CCOCCC(=O)N(C)C[C@H](O)[C@@H](O)[C@H](O)[C@H](O)CO)CCOc1ccc(CN2C(=O)C(C(=O)Nc3ccc(C(F)(F)F)cc3-c3cc(C(F)(F)F)ncn3)=C(O)C3(CCCC3)N2C)c(F)c1F [Example 425] | 5 | – |
| CN1N(Cc2cccc(F)c2F)C(=O)C(C(=O)Nc2ccc(Br)c(C(F)(F)F)n2)=C(O)C12CCC2 [Example 258] | 87 | – |
| CCN1[C@@H](C(C)(C)C)C(O)=C(C(=O)Nc2cc(F)c(Br)c(F)c2)C(=O)N1Cc1cccc(F)c1F [Example 246] | 52 | – |
| CN1N(Cc2ccc(OCCCCCOC[C@H](O)CO)c(F)c2F)C(=O)C(C(=O)Nc2ccc(C(F)(F)F)cc2-c2ccc(C(F)(F)F)nc2)=C(O)C12CCC2 [Example 385] | 39 | – |
| CSc1ccc(-c2cc(C(F)(F)F)ccc2NC(=O)C2=C(O)[C@H](C(C)(C)C)N(C)N(Cc3ccc(OCCN4CCOCC4)c(F)c3F)C2=O)cn1 [Example 268] | 63 | – |
| CN1CCN(CCOc2ccc(CN3C(=O)C(C(=O)Nc4ccc(C(F)(F)F)cc4-c4cc(C(F)(F)F)ncn4)=C(O)C4(CCC4)N3C)c(F)c2F)CC1=O [Example 359] | 37 | – |

| Compound | Rate of uptake inhibition (%) (1 µM) | Rate of uptake inhibition (%) (1 µM) |
| --- | --- | --- |
| CN1N(Cc2cccc(F)c2F)C(=O)C(C(=O)Nc2ccc(C(F)(F)F)nc2-c2cncc(C(F)(F)F)c2)=C(O)C1(C)C [Example 306] | 58 | – |
| CN1N(Cc2ccc(OCCCCCOC[C@H](O)CO)c(F)c2F)C(=O)C(C(=O)Nc2ccc(C(F)(F)F)cc2-c2cc(C(F)(F)F)ncn2)=C(O)C12CCCC2 [Example 394] | 45 | – |
| C[C@]12CCCN1N(Cc1ccccc1Cl)C(=O)C(C(=O)Nc1cc(F)c(Br)c(F)c1)=C2O [Example 219] | 95 | – |
| C[C@]12CCCN1N(Cc1ccccc1Cl)C(=O)C(C(=O)Nc1ccc(C(F)(F)F)cc1-c1cc(C(F)(F)F)ncn1)=C2O [Example 180] | 75 | – |
| C[C@@]12CCCN1N(Cc1ccc(OCCN3CCOCC3)c(F)c1F)C(=O)C(C(=O)Nc1ccc(C(F)(F)F)cc1-c1cc(C(F)(F)F)ncn1)=C2O.Cl [Example 108] | 54 | – |
| COCCN1CC(Oc2ccc(CN3C(=O)C(C(=O)Nc4ccc(C(F)(F)F)cc4-c4cc(C(F)(F)F)ncn4)=C(O)C4(CCC4)N3C)c(F)c2F)C1 [Example 406, 6-[[2,3-Difluoro-4-[1-(2-methoxyethyl)azetidin-3-yl]oxyphenyl]methyl]-9-hydroxy-5-methyl-7-oxo-N-[4-(trifluoromethyl)-2-[6-(trifluoromethl)pyrimidin-4-yl]phenyl]-5,6-diazaspiro[3.5]non-8-ene-8-carboxamide] | 27 | – |
| CC1(C)C(O)=C(C(=O)Nc2ccc(C(F)(F)F)cc2-c2cc(C(F)(F)F)ncn2)C(=O)N(Cc2cccc(F)c2F)N1c1ccccc1 [Example 299] | 45 | – |
| Cc1c(Cl)ncnc1-c1cc(C(F)(F)F)ccc1NC(=O)C1=C(O)[C@@]2(C)CCCN2N(Cc2cccc(F)c2F)C1=O [Example 69] | 74 | – |
| C[C@]12CCCN1N(Cc1ccc(F)cc1)C(=O)C(C(=O)Nc1ccc(C(F)(F)F)cc1-c1cc(C(F)(F)F)ncn1)=C2O [Example 208] | 90 | – |
| C[C@]12CCCN1N(Cc1cccc(F)c1F)C(=O)C(C(=O)Nc1ccc(C(F)(F)F)cc1-c1ncnc(C#N)c1Cl)=C2O [Example 23] | 84 | – |
| Cc1c(-c2cc(C(F)(F)F)ccc2NC(=O)C2=C(O)C3(CCC3)N(C)N(Cc3ccc(OCCN4CCOCC4)c(F)c3F)C2=O)ncnc1C(F)(F)F [Example 285] | 62 | – |
| CN1N(Cc2ccc(OCCn3cncn3)c(F)c2F)C(=O)C(C(=O)Nc2ccc(C(F)(F)F)cc2-c2cc(C(F)(F)F)ncn2)=C(O)C12CCC2 [Example 352] | 27 | – |
| C[C@]12CCCN1N(Cc1cc(F)ccc1F)C(=O)C(C(=O)Nc1cc(F)c(Br)c(F)c1)=C2O [Example 193] | 82 | – |
| C[C@]12CCCN1N(Cc1cccc(Cl)c1)C(=O)C(C(=O)Nc1ccc(C(F)(F)F)cc1-c1cc(C(F)(F)F)ncn1)=C2O [Example 181] | 85 | – |
| Cc1cc(NC(=O)C2=C(O)[C@H]3CCCN3N(Cc3cccc(F)c3)C2=O)c(C(F)(F)F)o1 [Example 2, (4aR)-1-[(3-Fluorophenyl)methyl]-4-hydroxy-N-[5-methyl-2-(trifluoromethyl)furan-3-yl]-2-oxo-4a,5,6,7-tetrahydropyrrolo[1,2-b]pyridazine-3-carboxamide] | 19 | – |
| COCCN(C)CCOc1c(-c2cccnc2)cc(CN2C(=O)C(C(=O)Nc3ccc(C(F)(F)F)cc3-c3cc(C(F)(F)F)ncn3)=C(O)C3(CCCC3)N2C)c(F)c1F [Example 440, 9-[[2,3-Difluoro-4-[2-[2-methoxyethyl(methyl)amino]ethoxy]-5-(3-pyridinyl)phenyl]methyl]-6-hydroxy-10-methyl-8-oxo-N-[4-(trifluoromethyl)-2-[6-(trifluoromethyl)pyrimidin-4-yl]phenyl]-9,10-diazaspiro[4.5]dec-6-ene-7-carboxamide] | 28 | – |
| C[C@]12CCCN1N(Cc1c(F)cc(C#CCCCCCOC[C@H](O)[C@@H](O)CO)cc1F)C(=O)C(C(=O)Nc1ccc(C(F)(F)F)cc1-c1ccc(C(F)(F)F)nc1)=C2O [Example 124] | 81 | – |
| C[C@]12CCCN1N(Cc1cccc(Cl)c1)C(=O)C(C(=O)Nc1cc(F)c(Br)c(F)c1)=C2O [Example 221] | 82 | – |
| CN1N(Cc2ccc(OCCCCCOC[C@H](O)CO)c(F)c2F)C(=O)C(C(=O)Nc2ccc(C(F)(F)F)cc2-c2ccc(C(F)(F)F)nc2)=C(O)C12CCCC2 [Example 388] | 15 | – |
| C[C@]12CCCN1N(Cc1cccc(Cl)c1)C(=O)C(C(=O)Nc1ccc(C(F)(F)F)cc1-c1ccc(C(F)(F)F)nc1)=C2O [Example 169] | 73 | – |
